The source of these data is ChEMBL document CHEMBL5512609, “HDAC-targeting epigenetic modulators for cancer immunotherapy” (Eur J Med Chem, 2024).

pIC50: −log10 of the molar value.

Assay [1] has as its target Programmed cell death protein 1/Programmed cell death 1 ligand 1 (Homo sapiens, UniProt Q15116+Q9NZQ7). The experiment in a line: Inhibition of PD-1/PDL1 interaction (unknown origin) in by HTRF assay. In kind it is protein-complex assay. In general terms: In TR-FRET formats the signal depends on donor and acceptor labels being close together.
The target in assay [2] is T1, Protein cereblon/Protein deacetylase HDAC6 (Homo sapiens, UniProt Q9UBN7+Q96SW2). The experiment in a line: PROTAC activity at CRBN/HDAC6 in human MM1.S cells assessed as HDAC6 degradation. In kind it is cell-based.
Target sequence in this assay (Q9UBN7 whole entry): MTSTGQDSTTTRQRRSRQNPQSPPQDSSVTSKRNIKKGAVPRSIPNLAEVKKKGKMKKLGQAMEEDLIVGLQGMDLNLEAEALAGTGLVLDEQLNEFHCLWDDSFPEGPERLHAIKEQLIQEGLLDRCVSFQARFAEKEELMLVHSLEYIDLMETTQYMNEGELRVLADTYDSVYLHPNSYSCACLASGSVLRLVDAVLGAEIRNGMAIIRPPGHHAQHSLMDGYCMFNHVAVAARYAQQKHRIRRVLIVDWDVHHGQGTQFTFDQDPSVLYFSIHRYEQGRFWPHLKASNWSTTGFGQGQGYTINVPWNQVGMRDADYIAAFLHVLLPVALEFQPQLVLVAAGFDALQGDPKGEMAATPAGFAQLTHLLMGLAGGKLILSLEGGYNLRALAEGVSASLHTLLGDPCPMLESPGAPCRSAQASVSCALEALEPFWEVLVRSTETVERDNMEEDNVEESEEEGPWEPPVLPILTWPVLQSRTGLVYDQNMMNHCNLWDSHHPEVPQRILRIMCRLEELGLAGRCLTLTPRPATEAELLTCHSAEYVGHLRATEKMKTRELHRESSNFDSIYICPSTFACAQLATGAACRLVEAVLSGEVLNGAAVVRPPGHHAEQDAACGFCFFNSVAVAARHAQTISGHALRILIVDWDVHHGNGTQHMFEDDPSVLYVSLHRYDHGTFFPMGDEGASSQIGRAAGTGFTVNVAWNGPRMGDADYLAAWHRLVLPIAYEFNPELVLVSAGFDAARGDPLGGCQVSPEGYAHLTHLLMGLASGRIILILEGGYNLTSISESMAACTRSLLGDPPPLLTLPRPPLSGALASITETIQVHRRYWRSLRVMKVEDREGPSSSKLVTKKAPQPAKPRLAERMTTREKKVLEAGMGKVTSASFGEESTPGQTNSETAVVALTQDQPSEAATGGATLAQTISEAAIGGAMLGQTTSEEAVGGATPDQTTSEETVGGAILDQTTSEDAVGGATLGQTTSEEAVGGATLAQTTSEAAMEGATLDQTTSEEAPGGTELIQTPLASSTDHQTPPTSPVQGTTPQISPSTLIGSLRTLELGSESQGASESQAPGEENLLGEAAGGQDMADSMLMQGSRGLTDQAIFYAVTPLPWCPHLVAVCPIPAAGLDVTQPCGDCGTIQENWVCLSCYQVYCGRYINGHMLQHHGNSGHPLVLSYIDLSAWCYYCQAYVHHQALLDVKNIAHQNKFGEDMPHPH
Target sequence in this assay (Q96SW2 whole entry): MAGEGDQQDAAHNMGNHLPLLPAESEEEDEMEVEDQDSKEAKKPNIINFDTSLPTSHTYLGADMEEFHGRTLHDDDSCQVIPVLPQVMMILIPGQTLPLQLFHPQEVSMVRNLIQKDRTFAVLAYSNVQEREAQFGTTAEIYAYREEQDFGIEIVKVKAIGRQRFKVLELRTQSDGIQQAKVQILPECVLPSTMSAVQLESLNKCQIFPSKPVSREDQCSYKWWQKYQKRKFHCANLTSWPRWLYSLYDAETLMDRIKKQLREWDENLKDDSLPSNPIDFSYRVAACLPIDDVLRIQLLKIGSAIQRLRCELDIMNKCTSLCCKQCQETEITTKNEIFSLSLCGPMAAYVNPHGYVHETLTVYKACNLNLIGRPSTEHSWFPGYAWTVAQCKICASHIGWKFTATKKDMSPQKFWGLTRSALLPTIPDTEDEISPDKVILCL
Assay [3] concerns the target T1, Protein cereblon/Protein deacetylase HDAC6. The experiment in a line: PROTAC activity at CRBN/HDAC6 in human HL-60 cells assessed as HDAC6 degradation. In kind it is cell-based.
Target sequence in this assay (Q9UBN7 whole entry): as the sequence (Q9UBN7 whole entry) above
Target sequence in this assay (Q96SW2 whole entry): as the sequence (Q96SW2 whole entry) above
The target is the same in assay [4]. Kind of assay: PROTAC activity at CRBN/HDAC6 in human HL-60 cells assessed as HDAC6 degradation by measuring maximum efficacy relative to control. It counts as cell-based.
Target sequence in this assay (Q96SW2 whole entry, looked up): as the sequence (Q96SW2 whole entry) above
Target sequence in this assay (Q9UBN7 whole entry, looked up): as the sequence (Q9UBN7 whole entry) above
Assay [5] concerns the target T2, von Hippel-Lindau disease tumor suppressor/Histone deacetylase 3 (Homo sapiens, UniProt O15379+P40337). The experiment in a line: Protac activity at VHL/HDAC3 in human MDA-MB-468 cells assessed as HDAC3 degradation measured after 14 hrs by Western blot analysis. It counts as cell-based. A general note: Immunoblotting shows a protein as a band on a membrane.
The test system of the next assay is MDA-MB-468. Kind of assay: Antiproliferative activity against human MDA-MB-468 cells. It counts as functional, cell-based.
Assay [6] deals with T3, von Hippel-Lindau disease tumor suppressor/Histone deacetylase 1 (Homo sapiens, UniProt Q13547+P40337). Kind of assay: PROTAC activity at VHL/HDAC1 in human HCT-116 cells assessed as degradation of HDAC1 incubated for 24 hrs by immunoblot analysis. In kind it is cell-based.
Assay [7] deals with T3, von Hippel-Lindau disease tumor suppressor/Histone deacetylase 1. Kind of assay: PROTAC activity at VHL/HDAC1 in human HCT-116 cells assessed as degradation of HDAC1 by measuring maximum efficacy incubated for 24 hrs by immunoblot analysis relative to control. It counts as cell-based.
Assay [8] concerns the target T4, von Hippel-Lindau disease tumor suppressor/Histone deacetylase 2 (Homo sapiens, UniProt Q92769+P40337). The experiment in a line: PROTAC activity at VHL/HDAC2 in human HCT-116 cells assessed as degradation of HDAC2 by measuring maximum efficacy incubated for 24 hrs by immunoblot analysis relative to control. It counts as cell-based.
In assay [9] the target is T1, Protein cereblon/Protein deacetylase HDAC6. The experiment in a line: PROTAC activity at CRBN/HDAC6 in human MINO cells assessed as HDAC6 degradation incubated for 18 hrs by immunoblot analysis. In kind it is cell-based.
Target sequence in this assay (Q9UBN7 whole entry): as above
Target sequence in this assay (Q96SW2 whole entry): as the sequence (Q96SW2 whole entry) above
Assay [10] has the same target. The experiment in a line: PROTAC activity at CRBN/HDAC6 in human JeKo-1 cells assessed as HDAC6 degradation incubated for 18 hrs by immunoblot analysis. In kind it is cell-based.
Target sequence in this assay (Q9UBN7 whole entry): as the sequence (Q9UBN7 whole entry) above
Target sequence in this assay (Q96SW2 whole entry): as the sequence (Q96SW2 whole entry) above
For assay [11] the target is unchanged. Kind of assay: PROTAC activity at CRBN/HDAC6 in human HUVEC cells assessed as HDAC6 degradation incubated for 18 hrs by immunoblot analysis. In kind it is cell-based.
Target sequence in this assay (Q9UBN7 whole entry): as the sequence (Q9UBN7 whole entry) above
Target sequence in this assay (Q96SW2 whole entry): as the sequence (Q96SW2 whole entry) above
For assay [12] the target is unchanged. Kind of assay: PROTAC activity at CRBN/HDAC6 in human MDA-MB-231 cells assessed as HDAC6 degradation incubated for 18 hrs by immunoblot analysis. It counts as cell-based.
Target sequence in this assay (Q9UBN7 whole entry): as the sequence (Q9UBN7 whole entry) above
Target sequence in this assay (Q96SW2 whole entry): as the sequence (Q96SW2 whole entry) above
For assay [13] the target is unchanged. Kind of assay: PROTAC activity at CRBN/HDAC6 in human MM1.S cells assessed as HDAC6 degradation incubated for 18 hrs by immunoblot analysis. In kind it is cell-based.
The target is the same in assay [14]. The experiment in a line: PROTAC activity at CRBN/HDAC6 in human MM1.S cells assessed as HDAC6 degradation by measuring maximum efficacy incubated for 18 hrs by immunoblot analysis relative to control. In kind it is cell-based.
Target sequence in this assay (Q96SW2 whole entry, looked up): as the sequence (Q96SW2 whole entry) above
Target sequence in this assay (Q9UBN7 whole entry, looked up): as the sequence (Q9UBN7 whole entry) above
Assay [15] is described as follows: Inhibition of LSD1/HDAC1/CoREST complex (unknown origin) using Boc-(Ac)Lys-AMC as substrate measured after 20 mins by fluorescence based analysis. Further details: species or system Homo sapiens.
Assay [16] in a line: Inhibition of LSD1/HDAC2/CoREST complex (unknown origin) using Boc-(Ac)Lys-AMC as substrate measured after 20 mins by fluorescence based analysis. Further details: species or system Homo sapiens.
Assay [17] can be described thus: Inhibition of LSD1/HDAC3/CoREST complex (unknown origin) using Boc-(Ac)Lys-AMC as substrate measured after 20 mins by fluorescence based analysis. Further details: species or system Homo sapiens.
Assay [18] deals with T3, von Hippel-Lindau disease tumor suppressor/Histone deacetylase 1. The experiment in a line: PROTAC activity at VHL/HDAC1 in human HCT-116 cells assessed as degradation of HDAC1 incubated for 24 hrs by Western blot analysis. It counts as cell-based.
In assay [19] the target is T4, von Hippel-Lindau disease tumor suppressor/Histone deacetylase 2. Kind of assay: PROTAC activity at VHL/HDAC2 in human HCT-116 cells assessed as degradation of HDAC2 incubated for 24 hrs by Western blot analysis. It counts as cell-based.
Assay [20] deals with T2, von Hippel-Lindau disease tumor suppressor/Histone deacetylase 3. The experiment in a line: PROTAC activity at VHL/HDAC3 in human HCT-116 cells assessed as degradation of HDAC3 incubated for 24 hrs by Western blot analysis. In kind it is cell-based.
In assay [21] the target is T1, Protein cereblon/Protein deacetylase HDAC6. The experiment in a line: PROTAC activity at CRBN/HDAC6 in human MM1.S cells assessed as induction of degradation of HDAC6. It counts as cell-based.
Assay [22] has the same target. Kind of assay: PROTAC activity at CRBN/HDAC6 in human MM1.S cells assessed as induction of degradation of HDAC6 by measuring maximum efficacy relative to control. In kind it is cell-based.
Target sequence in this assay (Q96SW2 whole entry, looked up): as the sequence (Q96SW2 whole entry) above
Target sequence in this assay (Q9UBN7 whole entry, looked up): as the sequence (Q9UBN7 whole entry) above
For assay [23], the target named is Protein cereblon/Histone deacetylase 8 (Homo sapiens, UniProt Q9BY41+Q96SW2). The experiment in a line: PROTAC activity at CRBN/HDAC8 in human Jurkat T cells assessed as induction of degradation of HDAC8 by Western blot analysis. In kind it is cell-based.

Sequence of Programmed cell death protein 1/Programmed cell death 1 ligand 1 (Q15116 whole entry): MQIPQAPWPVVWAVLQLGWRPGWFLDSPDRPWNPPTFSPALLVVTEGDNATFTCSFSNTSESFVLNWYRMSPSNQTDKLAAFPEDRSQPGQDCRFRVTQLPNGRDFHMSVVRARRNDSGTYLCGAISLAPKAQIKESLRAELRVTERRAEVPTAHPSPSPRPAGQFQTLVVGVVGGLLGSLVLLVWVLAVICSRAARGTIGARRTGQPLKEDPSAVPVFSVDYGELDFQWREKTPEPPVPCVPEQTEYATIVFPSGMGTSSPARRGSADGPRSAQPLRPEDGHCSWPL
Sequence of Programmed cell death protein 1/Programmed cell death 1 ligand 1 (Q9NZQ7 whole entry): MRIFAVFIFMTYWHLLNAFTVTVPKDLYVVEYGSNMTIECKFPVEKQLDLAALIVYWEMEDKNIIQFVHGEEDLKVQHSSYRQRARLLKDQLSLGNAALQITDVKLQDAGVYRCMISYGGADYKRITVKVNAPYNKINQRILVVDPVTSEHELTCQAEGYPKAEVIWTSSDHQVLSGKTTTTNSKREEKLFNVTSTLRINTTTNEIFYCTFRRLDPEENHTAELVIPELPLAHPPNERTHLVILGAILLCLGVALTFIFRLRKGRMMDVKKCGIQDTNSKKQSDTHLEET

Take `Cc1c(COc2ccc(CNCCC(=O)NO)c(OCc3cccc(C#N)c3)c2)cccc1-c1ccccc1`: in assay [1], the pIC50 (commonly the negative decadic logarithm of the IC50, by convention in mol/L) was 7.09.

For `Cc1nc2cc(NC(=O)CCCCCCCNC(=O)COc3cccc4c3C(=O)N(C3CCC(=O)NC3=O)C4=O)ccc2n1Cc1ccc(C(=O)NO)cc1F` (stereo not drawn), the DC50 (commonly the midpoint of the concentration-degradation curve) in [2] was found to be 0.0038 µM; in assay [3], 0.0194 µM. Further, the Emax (commonly the greatest response seen or fitted, relative to the assay's reference) in [4] was 92.2%.

In the case of `CCCNNC(=O)c1ccc(-c2ccc(NC(=O)CCCCCCC(=O)N[C@H](C(=O)N3C[C@H](O)C[C@H]3C(=O)N[C@H](C)c3ccc(-c4scnc4C)cc3)C(C)(C)C)cc2)cc1`, the DC50 in assay [5] was 0.042 µM. The compound further had a pIC50 in the assay with MDA-MB-468 of 7.28.

For the compound `Cc1ncsc1-c1ccc(CNC(=O)[C@H]2C[C@H](O)CN2C(=O)[C@H](NC(=O)CCn2cc(CCCOC(=O)NCc3ccc(C(=O)Nc4ccc(F)cc4N)cc3)nn2)C(C)(C)C)cc1`, the DC50 in [6] was 2.84 µM. Moreover, the Emax in [7] and in assay [8] was 62% each time.

Regarding `COc1cc(OCc2cccc(-c3ccccc3)c2C)cc(OC)c1CN(C)CCCC(=O)NO`, the pIC50 in assay [1] is 6.98.

Take `CCCCN(Cc1ccc(C(=O)NO)cc1)C(=O)Nc1ccc(OCCCCCCCn2cc(CCCCCNc3cccc4c3C(=O)N(C3CCC(=O)NC3=O)C4=O)nn2)cc1` (stereo not drawn): the DC50 in assay [9] was 0.0032 µM; in assay [10] it was 0.0032 µM; in [11], 0.0032 µM; in assay [12] it was 0.0032 µM; in assay [13] it was 0.0016 µM. In [14], the Emax was found to be 86%.

As to `Cc1ncsc1-c1ccc(CNC(=O)[C@H]2C[C@H](O)CN2C(=O)[C@H](NC(=O)CCCCCCCCCCC(=O)Nc2ccc(C(=O)Nc3ccccc3N)cc2)C(C)(C)C)cc1`, the pIC50 in [15], in [16] and in assay [17] was 4.77 throughout. Besides, the DC50 in assay [18], in assay [19] and in [20] was 1 µM in each case.

`CCCCN(Cc1ccc(C(=O)NO)cc1)C(=O)Nc1ccc(NC(=O)CCCCCc2cn(CCOCCNc3cccc4c3C(=O)N(C3CCC(=O)NC3=O)C4=O)nn2)cc1` (stereo not drawn): the DC50 in assay [21] stood at 0.0016 µM. For the same compound, in assay [22], the Emax turned out to be 86%.

Consider `COc1cc(OCc2cccc(-c3ccccc3)c2C)cc(OC)c1CNCCCCCCC(=O)NO`, for which the pIC50 in assay [1] was 7.07.

In [1], `Cc1c(COc2ccc(CNCCCCCC(=O)NO)c(F)c2)cccc1-c1ccccc1` gave a pIC50 of 7.21.

`Cc1c(COc2ccc(CNCCC(=O)NO)c(F)c2)cccc1-c1ccccc1` showed a pIC50 in [1] of 6.92. This pIC50 lies 0.29 log units lower than the previous one.

Regarding `COc1cc(C(=O)NO)ccc1NCc1ccc(OCc2cn(CCCCCC(=O)Nc3cccc4c3C(=O)N(C3CCC(=O)NC3=O)C4=O)nn2)cc1` (stereo not drawn), the DC50 in assay [23] amounted to 0.25 µM.
